The results in this text go back to US12649980B2, “Three-dimensional surface for protein and small molecule microarrays” (The Johns Hopkins University, priority 2019, dated 2026).

For experiment [1], the system named is HeLa. The experiment is described as follows: Alamar blue cell proliferation assay, HeLa. The format is cell-based, human. The note with it: 72 h, read-out: IC50 Assay B (Alamar blue cell proliferation). Here is the method: The effects of RgA on cell growth, survival, and cell death was then determined. […] Treatment with 5 μM of RgA caused an increase in G1 phase by approximately 23% in comparison to control and approximately 7% and 17% decreases in cells in S and G2/M phases, respectively. The induction in G1 phase cell cycle arrest by RgA is dose-dependent (FIG. 5A, FIG. 16). […] Jones and Thompson, Genes Dev. 2009, 23, 537-548. […] The IC50 values of RgA against several human cancer cell lines also was determined using the alamar blue cell proliferation assay.
Cells were seeded into a 96-well plate (Costar) in 180 μL culture media. After an overnight recovery, drugs were added and incubated for 72 h. After drug incubation, cells were added with 20 μL of alamar blue reagent and the plates were incubated at 37° C. for 6 h before reading the fluorescence (544 nm Ex/590 nm Em) with a plate reader. GraphPad Prism (v4.03) software was used to determine IC50 values using a four parameter logistic regression.
On the technique in general: Resazurin is reduced to fluorescent resorufin, in cell work by metabolically active cells.

In the next experiment the target is T1, GLUT1 (Homo sapiens, UniProt P11166).
T1 construct: The full-length human SLC2A1, SLC2A3, and SLC2A4 genes were PCR amplified and inserted into pLenti6M vector 2; expressed in transfected cells
T1 sequence (P11166 1-492): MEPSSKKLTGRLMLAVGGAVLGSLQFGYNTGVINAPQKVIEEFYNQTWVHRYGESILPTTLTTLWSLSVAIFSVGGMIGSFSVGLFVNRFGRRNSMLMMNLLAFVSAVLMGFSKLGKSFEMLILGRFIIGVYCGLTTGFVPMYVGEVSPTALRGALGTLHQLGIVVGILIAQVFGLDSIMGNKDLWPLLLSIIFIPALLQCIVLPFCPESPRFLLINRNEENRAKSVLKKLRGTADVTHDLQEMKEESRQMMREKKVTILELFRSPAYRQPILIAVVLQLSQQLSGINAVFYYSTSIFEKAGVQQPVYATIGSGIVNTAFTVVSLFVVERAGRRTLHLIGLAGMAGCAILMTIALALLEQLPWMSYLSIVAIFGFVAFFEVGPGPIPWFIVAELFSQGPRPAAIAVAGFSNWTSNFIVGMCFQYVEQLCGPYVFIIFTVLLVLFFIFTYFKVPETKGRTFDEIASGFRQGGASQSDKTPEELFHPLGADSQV
Put plainly: rapafucin 3D microarray screen with GLUT1-containing cell lysate. It is filed as binding. Conditions: signal-to-background ratio, 3D surface, lysate of GLUT1-overexpressing HEK293T; hit if SBR > 3. From the text: Once stock solutions of the rapafucin library were arrayed on the 2D or 3D surface and most of solvent carrier was evaporated, the crosslinking reaction was initiated by irradiating the surfaces with 365-nm wavelength UV light. Kawatani and Osada, Medchemcomm 2014, 5, 277-287. […] To screen for GLUT1-interacting rapafucins, GLUT1 was stably overexpressed in HEK293T cells and generated cell lysates containing detergent-solubilized recombinant GLUT1 (FIG. 10). The GLUT1-containing cell lysate was then incubated on both 2D and 3D rapafucin microarrays. After washing the slides to remove unbound proteins, the bound GLUT1 protein was detected with anti-GLUT1 antibodies, followed by visualization with Cy5-labeled secondary antibodies using a microarray scanner. Rapafucins were scored as positive hits when the corresponding SBR was greater than 3. Based on this criterion, a total of 17 rapafucin hits and one positive control BAY-876, a specific GLUT1 inhibitor, Siebeneicher et al., ChemMedChem 2016, 11, 2261-2271, were identified on the 3D rapafucin microarray. In contrast, only one hit (WL13-F11, also among the 17 hits identified from the 3D rapafucin microarray) was identified on the 2D rapafucin microarray (Table 1, FIG. 11).
The amine substrates (Arrayit, SMM) were immerged in a mixture of 2-bromoisobutyryl bromide (BIBB, 0.1 mM, as initiator) and propionyl bromide (10 mM, as horizontal spacer) with triethylamine (15 mM) in DCM for 4 hours. A degassed polymerization reaction mixture, containing copper (II) chloride dihydrate (CuCl2, 4 mmol), 2,2′-bipyridine (2 mmol), 75 mmol monomers mixture of 2-(dimethylamino)ethyl methacrylate (DMAEMA) and poly(ethylene glycol) methacrylate (PEGMA Mn 360) in 500 mL Milli-Q/MeOH, was mixed with freshly made ascorbic acid (4 mmol). The mixture was applied to 50 slides for 6 hours under the argon atmosphere for the surface-initiated polymerization. A gradient ratio of PEGMA and DMAEMA was set, including 10:0, 8:2, 5:5, 2:8 and 0:10 for an optimization purpose. The terminals of the brushes were further functionalized by N,N′-disuccinimidyl carbonate (DSC, 10 mM) and 4-dimethylaminopyridine (DMAP,10 mM) in DMF overnight to form succinimidyl carbonate intermediate, and, successively, diazirine linker 1 (10 mM) and N,Ndiisopropylethylamine (DIPEA, 50 mM) in DMF for 2 hours to couple the photoaffinity linker in dark at room temperature. At the end, the substrates were immerged in a 50 mM ethanolamine in DMF to block the residual carboxylic moiety. The slides were thoroughly washed by DMF, EtOH and DCM and dried in a fuming cupboard and ready for spotting.
10 mM of rapafucins in DMSO from the library were spotted onto the slides with a high-precision microarrayer (Nanoprint, Arrayit, CA) for a desired pattern in dark, which was loaded with 16 100-μm diameter micro-spotting pins. The pin heads were thoroughly washed and sonicated in ethanol and dried for 4 times under a compassed air between each sample loading. After overnight evaporation, the slides were exposed to 365-nm wavelength UV irradiation for 4 J/cm^2 by CL-1000L UV crosslinker (UVP, CA) for rapafucins covalent immobilization. The slides were ultrasonic cleaned successively in DCM, MeOH and Milli-Q water and stored in a −20° C. freezer.
In the optimization experiments, the slides were incubated with 50 nM purified recombinant FKBP12 for 1 hour, while in the GLUT1 screening, 10 mg/mL of cell lysate containing DDM-solubilized GLUT1 from GLUT1 overexpressed HEK293T was incubated for 1 hour. Successively, primary antibody and CY5 labeled secondary antibody were added for 1 hour. The chips were washed in buffer A for 5 mins 3 times after the sample and antibodies incubation. After centrifugation, the dried chips were scanned by a microarray scanner (Genepix, US) at 635-nm wavelength. The final result was analyzed by GenePix software.

The subject of experiment [2] is HeLa. Put plainly: [3H]-2DG uptake assay in HeLa cells. It is filed as cell-based, human. The protocol: Hay, Nat. Rev. […] To determine whether RgA could inhibit glucose uptake in cancer cell lines in addition to A549, the impact of RgA on [3H]-2DG uptake in six other cancer cell lines, including HCC1954, MCF-7, PANC10.05, Jurkat T, HeLa, and RKO was measured (FIG. 3A, Table 3).
The inhibitory activity of compounds on glucose transport was analyzed by measuring the cell uptake of [3H]-2DG as previously described. Ulanovskaya et al., Chem. Biol. 2011, 18, 222-230. Briefly, cells were washed twice and incubated in low-glucose medium for 10 min. Cells were added drugs and incubated for another 10 min before adding [3H]-2DG. After 10 min incubation with [3H]-2DG, cells were washed twice and lysed with 0.2 N NaOH plus 0.2% SDS. The cell lysate was transferred to a new tube containing 1 mL of optiphase supermix. Glucose uptake was quantified with a scintillation counter.

SMILES strings stand for the structures.

For `CCC(C)C1C(=O)NCC(=O)N(C)CCC=CC(=O)OCC(C)(C)C(=O)C(=O)N2CCCCC2C(=O)OC(CCc2ccc(OC)c(OC)c2)c2cccc(c2)NC(=O)CCC(=O)N(C)C(CC(C)C)C(=O)NC(Cc2ccccc2)C(=O)N1C` (stereo not drawn) [JW11-D2, Rapaglutin A], the IC50 with HeLa [1] was 281 nM; with HeLa [2] it was 18.9 nM. At GLUT1, the “3D SBR” value turned out to be 6.5 ± 1.4.
